{
  "source": "EPA's ToxValDB 9.5 (doi:10.2903/j.efsa.2010.1692)",
  "key": {"Anas platyrhynchos": {"system": "Anas platyrhynchos", "conditions": "short-term; oral; feed; mortality"}, "Aphidius rhopalosiphi": {"system": "Aphidius rhopalosiphi", "conditions": "not reported; reproduction"}, "Apis mellifera": {"system": "Apis mellifera", "conditions": "acute; duration: 48 hours; oral; unspecified; mortality"}, "Chrysoperla externa": {"system": "Chrysoperla externa", "conditions": "not reported; mortality"}, "Lepomis macrochirus": {"system": "Lepomis macrochirus", "conditions": "acute; duration: 96 hours; mortality"}, "Lymnaea stagnalis": {"system": "Lymnaea stagnalis", "conditions": "chronic/long-term; duration: 41 days"}, "Oncorhynchus mykiss": {"system": "Oncorhynchus mykiss", "conditions": "acute; duration: 96 hours; mortality"}, "Pimephales promelas": {"system": "Pimephales promelas", "conditions": "chronic/long-term; duration: 32 days"}, "Tagia sp.": {"system": "Tagia sp.", "conditions": "acute; mortality"}},
  "data": [
    {"compound": "COc1cc(OC)nc(Oc2cccc(Oc3nc(OC)cc(OC)n3)c2C(=O)[O-])n1.[Na+]", "note": "[Bispyribac-sodium]", "values": [
      {"measurement": "LC50", "setting": "Anas platyrhynchos", "value": "> 2060", "unit": "mg/kg"},
      {"measurement": "LEL", "setting": "Aphidius rhopalosiphi", "value": 3, "unit": "g/ha"},
      {"measurement": "LD50", "setting": "Apis mellifera", "value": "> 141", "unit": "µg/piece"},
      {"measurement": "LEL", "setting": "Chrysoperla externa", "value": 30, "unit": "g/ha"},
      {"measurement": "LC50", "setting": "Coturnix coturnix; acute, oral, diet, mortality", "value": "> 2080", "unit": "mg/kg"},
      {"measurement": "LD50", "setting": "Coturnix coturnix; acute, oral, mortality", "value": "> 2250", "unit": "mg/kg"},
      {"measurement": "NOEC", "setting": "Coturnix coturnix; reproduction developmental, reproduction", "value": 116, "unit": "mg/kg-day"},
      {"measurement": "LC50", "setting": "Lepomis macrochirus", "value": "> 95", "unit": "µg/mL"},
      {"measurement": "NOEC", "setting": "Lymnaea stagnalis", "value": "≥ 10", "unit": "mg/L"},
      {"measurement": "LC50", "setting": "Oncorhynchus mykiss", "value": "> 95", "unit": "µg/mL"},
      {"measurement": "NOEC", "setting": "Pimephales promelas", "value": "≥ 10", "unit": "mg/L"},
      {"measurement": "LD50", "setting": "Rattus norvegicus; acute, oral, mortality", "value": 2640, "unit": "mg/kg"},
      {"measurement": "NOAEL", "setting": "Rattus norvegicus; chronic, duration: 2 years, hematological", "value": 1.1, "unit": "mg/kg-day"},
      {"measurement": "NOAEC", "setting": "Rattus norvegicus; reproduction developmental, body weight", "value": 50, "unit": "mg/kg-day"},
      {"measurement": "NOAEL", "setting": "Rattus norvegicus; reproduction developmental, histopathology: nonneoplastic", "value": 1, "unit": "mg/kg-day"},
      {"measurement": "NOAEL", "setting": "Rattus norvegicus; subchronic, duration: 90 days, oral, clinical chemistry", "value": 7.2, "unit": "mg/kg-day"},
      {"measurement": "LC50", "setting": "Tagia sp.", "value": "> 957", "unit": "mg/kg"}
    ]}
  ]
}
